Laboratory results from patent US20140256771A1, “COMPOUNDS THAT MODULATE INTRACELLULAR CALCIUM” (CalciMedica, Inc., priority 2011, published 2014).
pIC50: −log10 of the molar value. Read-outs that look alike come from different tables or passages of the source.

Assays:
[1] = system: Jurkat cells; conditions: cited from earlier work
[2] = system: Jurkat cells; conditions: cited from earlier work; remark: listed apart in the source
[3] = biological target: STIM1 and Orai1 (Homo sapiens, UniProt Q96D31); conditions: HEK293 cells co-expressing STIM1 and Orai1; cited from earlier work
[4] = system: RBL-2H3 cells; assay: Fluorescence-based assay of store-operated calcium entry in RBL-2H3 cells; assay type: cell-based, rat; set-up: key to RBL-2H3 (IC50, μmol): A < 0.6 μmol; 0.6 μmol ≦ B ≦ 1.2 μmol; C > 1.2 μmol; — = no fit; conditions: thapsigargin store depletion, 50% inhibition of Upslope; for pIC50: Rattus norvegicus, RBL-2H3, read-out: RBL-2H3 (IC50, μmol)
Procedure, shortened: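 RBL-2H3 cells loaded with 1.5 μM Fluo-4-AM, preincubated with compound 5 min at RT in Ca2+-free HBSS, stores depleted with thapsigargin 25 min. Calcium re-addition (final from 12 mM 12× stock) read on FLIPR; IC50 from inhibition of fluorescence rise at 7 s (Upslope).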

[5] = biological target: T1, Orai1/STIM1 (Homo sapiens, UniProt Q96D31); assay: Fluorescence-based assay of store-operated calcium entry in Orai1/STIM1 stable cells; assay type: cell-based; set-up: key to Orai1/STIM1 (IC50, μmol): A < 0.6 μmol; 0.6 μmol ≦ B ≦ 1.2 μmol; C > 1.2 μmol; — = no fit; conditions: HEK-293 cells stably expressing human STIM1 and Orai1, 50% inhibition of Peak-Basal fluo-4 signal; for pIC50: read-out: Orai1/STIM1 (IC50, μmol)
T1 construct: expressed in transfected cells; host or cells: HEK-293
Procedure, shortened: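 HEK-293 cells stably expressing human STIM1 and Orai1, fluo-4-AM loaded, preincubated 30 min at RT with compound in Ca2+-free HBSS. Calcium entry triggered by CaCl2 addition, read on FLIPR; IC50 is concentration inhibiting 50% of peak-minus-baseline fluorescence.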

T1 sequence (Q96D31 whole entry): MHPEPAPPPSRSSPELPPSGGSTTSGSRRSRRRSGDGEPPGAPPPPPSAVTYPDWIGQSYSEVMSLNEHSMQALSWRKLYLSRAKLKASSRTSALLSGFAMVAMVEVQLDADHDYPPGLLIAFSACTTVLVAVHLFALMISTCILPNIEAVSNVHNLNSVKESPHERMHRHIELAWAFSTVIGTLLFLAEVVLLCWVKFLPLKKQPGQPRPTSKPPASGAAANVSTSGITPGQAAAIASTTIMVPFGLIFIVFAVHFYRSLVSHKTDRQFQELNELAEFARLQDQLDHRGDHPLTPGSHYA
Chain of STIM1 and Orai1 (Q96D31 whole entry, species assumed): as the sequence (Q96D31 whole entry) above

| pIC50 ([4]; Table iv) | pIC50 ([5]; Table iv) | pIC50 ([4]; Table iii) | pIC50 ([5]; Table iii) | Structure (SMILES) | other results |
| --- | --- | --- | --- | --- | --- |
|  |  |  |  | Cc1nnsc1C(=O)Nc1ccc(-n2nc(C(F)(F)F)cc2C(F)(F)F)cc1 [BTP-2] | inhibition of proliferation [1]: inhibits; inhibition of SOCE [2]: inhibits |
|  |  |  |  | NCCOB(c1ccccc1)c1ccccc1 [2-aminoethoxydiphenylborate] | block of store dependent Ca2+ entry [3]: completely blocked |
| > 6.22 | > 6.22 |  |  | Cc1ccccc1C(=O)Nc1ccc(-c2nc(C(F)(F)F)sc2C)cc1 |  |
|  |  | > 6.22 | > 6.22 | Cn1nc(C(F)(F)F)cc1-c1ccc(NCc2c(F)cncc2F)cc1 |  |
|  |  | > 6.22 | > 6.22 | Cc1nc(C(F)(F)F)cn1-c1ccc(NCc2c(F)cccc2F)cc1F |  |
| > 6.22 | < 5.92 |  |  | Cc1nc(C(F)(F)F)cn1-c1ccc(NC(=O)c2c(F)cc(F)cc2F)cc1F |  |
|  |  | > 6.22 | 5.92 to 6.22 | Cn1nc(C(F)(F)F)cc1-c1c(F)cc(NCc2c(F)cccc2F)cc1F |  |
|  |  |  |  | Cc1nnsc1CNc1ccc(-n2nc(C(F)(F)F)cc2C)cc1 | RBL-2H3 (IC50, μmol) ([4]; Table iii): —; Orai1/STIM1 (IC50, μmol) ([5]; Table iii): — |
| > 6.22 | > 6.22 |  |  | CCn1nc(C(F)(F)F)cc1-c1ccc(NC(=O)c2c(F)cccc2F)cc1 |  |
|  |  | > 6.22 | < 5.92 | Cc1cc2c(cc1-c1ccc(NCc3ccccc3F)cc1)OC(F)(F)O2 |  |
